Reference: US20190110476A1, “NOVEL ISOTHIAZOLAMIDES, PROCESSES FOR THEIR PREPARATION AND THEIR USE AS FUNGICIDES” (priority 2014, published 2019)
Marks after values point to notes of the source that are not given here.

Assay: Measurement of LogP values by HPLC on reversed phase columns (EEC directive 79/831 Annex V.A8)
Assay type: physicochemical
Outline: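 LogP measured by reversed-phase HPLC following EEC directive 79/831 Annex V.A8. Lambda-max taken from UV spectra at 200–400 nm at chromatographic peak maxima; diastereoisomer values listed separately.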

| SMILES | LogP | LogP [a] | also measured |
| --- | --- | --- | --- |
| COc1ccc(CNc2nsc(C(=O)NCc3cc(OC)c(OC)c(OC)c3)c2Cl)cc1 [I-1344] | 3.08[a] | – | – |
| COc1ccc(CNc2nsc(C(=O)NCc3cccc(C)n3)c2Cl)cc1 [I-1345] | 1.78[a] | – | – |
| COc1ccc(CNc2nsc(C(=O)NC3CCC4CCCC43)c2Cl)cc1 (stereo not drawn) [I-1346] | 4.35[a] | – | – |
| COc1ccc(CNc2nsc(C(=O)NC3CCC(C4CCCCC4)CC3)c2Cl)cc1 (stereo not drawn) [I-1347] | 6.25[a] | – | – |
| COc1ccc(CNc2nsc(C(=O)NC(C)c3ccc(OC)c(OC)c3)c2Cl)cc1 (stereo not drawn) [I-1348] | 3.25[a] | – | – |
| CCn1cc(C(C)NC(=O)c2snc(NCc3ccc(OC)cc3)c2Cl)c(C)n1 (stereo not drawn) [I-1349] | 2.73[a] | – | – |
| C=CCONC(=O)c1snc(NCc2ccc(OC)cc2)c1Cl [I-1353] | 2.62[a] | – | – |
| Nc1nsc(C(=O)NCC2(Br)CCCCC2)c1F [I-1358] | 2.56[a] | – | – |
| C#Cc1c(N)nsc1C(=O)NCC1CCCCC1F (stereo not drawn) [I-1359] | 2.05[a] | – | – |
| Cc1nonc1NC(=O)c1snc(N)c1Cl [I-1361] | 1.27[a] | – | – |
| Cc1nc(CNC(=O)c2snc(N)c2Cl)cs1 [I-1362] | 1.14[a] | – | – |
| CCC(NC(=O)c1cc(N)ns1)C1CCCCC1 (stereo not drawn) [I-1407] | 2.30[b] | – | – |
| CC(C)(C)c1ccc2c(c1)CC(NC(=O)c1snc(N)c1Cl)CC2 (stereo not drawn) [I-1534] | 3.94[a] | – | – |
| CCC1(C)CC(NC(=O)c2snc(N)c2Cl)CC(C)(C)C1 (stereo not drawn) [I-1535] | 4.01[a] | – | – |
| Nc1nsc(C(=O)NCC2CCCCC2Cl)c1F (stereo not drawn) [I-1536] | 2.16[a] | – | – |
| Nc1nsc(C(=O)NCC2CCCCC2)c1N [I-1539] | 1.37[a] | – | – |
| COc1ccc(CNc2nsc(C(=O)NC3CC34CCCCC4)c2Cl)cc1 (stereo not drawn) [I-1548] | 4.39[a] | – | – |
| Nc1nsc(C(=O)NC2CC23CCCCC3)c1Cl (stereo not drawn) [I-1549] | 2.54[a] | – | – |
| Nc1nsc(C(=O)NCc2ccccc2Br)c1Cl [I-1553] | 1.88[a] | – | – |
| Nc1nsc(C(=O)NCC2CCCCC2C(F)(F)F)c1Cl (stereo not drawn) [I-1554] | 2.51[a] | – | – |
| COc1ccc(CNc2nsc(C(=O)NCc3ccc(C#N)cc3)c2Cl)cc1 [I-1555] | 3.23[a] | – | – |
| COc1ccc(CNc2nsc(C(=O)N(Cc3ccc(F)cc3F)C(=O)c3ccc(C(F)(F)F)cc3)c2Cl)cc1 [I-1556] | 5.14[a] | – | – |
| CC1CCCC(NC(=O)c2snc(N)c2Cl)C1 (stereo not drawn) [I-1563] | 2.37[a] | – | – |

| SMILES | LogP | LogP [a] | also measured |
| --- | --- | --- | --- |
| CC1CCCCC1NC(=O)c1snc(N)c1I (stereo not drawn) [I-1564] | 2.14[a] | – | – |
| Nc1nsc(C(=O)NCC2CCCCC2C(F)(F)F)c1Cl (stereo not drawn) [I-1566] | 2.63[a] | – | – |
| Nc1nsc(C(=O)NCC2CCCCC2C(F)(F)F)c1Cl (stereo not drawn) [I-1567] | 2.69[a] | – | – |
| COc1ccc(CNC(=O)c2snc(N)c2Cl)cc1O [I-1568] | 1.03[a] | – | – |
| CC(NC(=O)c1snc(N)c1Cl)C1CCCCC1 (stereo not drawn) [I-1569] | 2.84[a] | – | – |
| CC(C)(C)OC(=O)Nc1nsc(C(=O)NCC2CCCCC2Cl)c1Cl (stereo not drawn) [I-1571] | 3.53[a] | – | – |
| CC(C)(C)OC(=O)Nc1nsc(C(=O)NCC2CCCCC2Cl)c1F (stereo not drawn) [I-1572] | 3.34[a] | – | – |
| CC(C)(C)OC(=O)Nc1nsc(C(=O)NCC2CCCCC2Cl)c1Cl (stereo not drawn) [I-1578] | 3.52[a] | – | – |
| Nc1nsc(C(=O)NCC2CCC(Cl)CC2)c1Cl (stereo not drawn) [I-1579] | 2.20[a] | – | – |
| Nc1nsc(C(=O)NCC2CCCC(Cl)C2)c1Cl (stereo not drawn) [I-1580] | 2.23[a] | – | – |
| CC(C)(C)OC(=O)Nc1nsc(C(=O)NCC2CCCCC2Cl)c1Cl (stereo not drawn) [I-1581] | 3.56[a] | – | – |
| O=C(NCC1CCCCC1)c1snc(N=C(c2ccccc2)c2ccccc2)c1Cl [II-002, 4-chloro-N-(cyclohexylmethyl)-3-[(diphenylmethylene)amino]isothiazole-5-carboxamide] | – | – | chromatographic logP (HPLC LC-UV, acidic range, 0.1% formic acid in water and acetonitrile as eluent): 5.65 |
| O=C(NCC1CCCCO1)c1snc(N=C(c2ccccc2)c2ccccc2)c1Cl (stereo not drawn) [II-008] | – | 4.55^[a] | – |
| C[C@H](NC(=O)c1snc(NS(=O)(=O)c2ccccc2)c1Cl)C1CCCCC1 [II-009] | – | 3.75^[a] | – |
| C[C@H](NC(=O)c1snc(N=CN2CCCC2)c1Cl)C1CCCCC1 [II-024] | – | 2.73^[a] | – |
| C[C@H](NC(=O)c1snc(N=CN(C)C)c1Cl)C1CCCCC1 [II-025] | – | 3.13^[a] | – |
| CN(C)C=Nc1nsc(C(=O)NCc2ccc(Cl)cc2)c1Cl [II-031] | – | 2.41^[a] | – |
| O=C(NC1CCCC2CCCCC21)c1snc(N=CN2CCCC2)c1Cl (stereo not drawn) [II-036] | – | 3.52^[a] | – |
| O=C(NC1CCCC2CCCCC21)c1snc(N=CN2CCCC2)c1Cl (stereo not drawn) [II-037] | – | 3.83^[a] | – |
| CN(C)C=Nc1nsc(C(=O)NC2CCCC3CCCCC32)c1Cl (stereo not drawn) [II-038] | – | 3.94^[a] | – |
| CNS(=O)(=O)Nc1nsc(C(=O)NCC2CCCCC2)c1Cl [II-051] | – | 2.38^[a] | – |
| Cc1ccc(S(C)=Nc2nsc(C(=O)NCc3ccc(F)cc3F)c2F)cc1 (stereo not drawn) [II-058] | – | 2.74^[a] | – |

The next lines start with results.

| LogP | LogP [a] | SMILES | also measured |
| --- | --- | --- | --- |
| – | 5.13^[a] | O=C(NC1CCCCC1)c1snc(N=C(c2ccccc2)c2ccccc2)c1Cl [II-001] | – |
| – | 5.93^[a] | C[C@H](NC(=O)c1snc(N=C(c2ccccc2)c2ccccc2)c1Cl)C1CCCCC1 [II-003] | – |
| – | 4.89^[a] | O=C(NCc1ccccc1Cl)c1snc(N=C(c2ccccc2)c2ccccc2)c1Cl [II-004] | – |
| – | 3.83^[a] | O=C(NCC1CCCO1)c1snc(N=C(c2ccccc2)c2ccccc2)c1Cl (stereo not drawn) [II-005] | – |
| – | 3.60^[a] | O=C(NCC1CCOCC1)c1snc(N=C(c2ccccc2)c2ccccc2)c1Cl [II-006] | – |
| – | 3.71^[a] | O=C(NCC1CCCOC1)c1snc(N=C(c2ccccc2)c2ccccc2)c1Cl (stereo not drawn) [II-007] | – |
| – | 4.33^[a] | COc1ccc(CNc2nsc(C(=O)NC(C)Cc3ccccc3Cl)c2Cl)cc1 (stereo not drawn) [II-010] | – |
| – | 2.64^[a] | CC(Cc1ccccc1Cl)NC(=O)c1snc(N)c1Cl (stereo not drawn) [II-011] | – |
| – | 4.15^[a] | O=C(NCc1ccccc1F)c1snc(N(S(=O)(=O)c2ccccc2)S(=O)(=O)c2ccccc2)c1Cl [II-012] | – |
| – | 2.11 | COc1ccc2c(c1)CCCN2C(=O)c1snc(N)c1Cl [II-017] | LogP [b]: 2.06 |
| – | 2.78 | Nc1nsc(C(=O)N2CCCc3ccc(C(F)(F)F)cc32)c1Cl [II-018] | LogP [b]: 2.71 |
| – | 2.09 | Nc1nsc(C(=O)N2CCc3cc(F)ccc3C2)c1Cl [II-019] | LogP [b]: 2.05 |
| – | 2.02 | Nc1nsc(C(=O)N2CCc3ccccc3C2)c1Cl [II-020] | LogP [b]: 1.98 |
| – | 2.43 | Cc1cccc2c1N(C(=O)c1snc(N)c1Cl)CCC2 [II-021] | LogP [b]: 2.36 |
| – | 2.88 | Nc1nsc(C(=O)N2CCc3c(Cl)ccc(Cl)c3C2)c1Cl [II-022] | LogP [b]: 2.82 |
| – | 4.32^[a] | COc1ccc(CNc2nsc(C(=O)NC(C)Cc3ccc(Cl)cc3)c2Cl)cc1 (stereo not drawn) [II-023] | – |
| – | 2.66 | Nc1nsc(C(=O)N2CCCc3cc(Cl)ccc32)c1Cl [II-026] | LogP [b]: 2.60 |
| – | 2.68^[a] | CC(Cc1ccc(Cl)cc1)NC(=O)c1snc(N)c1Cl (stereo not drawn) [II-027] | – |
| – | 2.08 | Nc1nsc(C(=O)N2CCc3ccccc32)c1Cl [II-029] | LogP [b]: 2.03 |
| – | 2.17^[a] | O=C(NCc1ccc(Cl)cc1)c1snc(N=CN2CCCC2)c1Cl [II-030] | – |
| – | 1.82^[a] | CS(C)=Nc1nsc(C(=O)NCC2CCCCC2)c1Cl [II-032] | – |
| – | 2.15^[a] | O=C(NCC1CCCCC1)c1snc(N=S2CCCC2)c1Cl [II-033] | – |
| – | 1.38^[a] | CS(C)=Nc1nsc(C(=O)NCc2ccc(F)cc2F)c1Cl [II-041] | – |

| LogP | LogP [a] | SMILES | also measured |
| --- | --- | --- | --- |
| – | 1.64^[a] | O=C(NCc1ccc(F)cc1F)c1snc(N=S2CCCC2)c1Cl [II-042] | – |
| – | 1.42^[a] | CS(C)=Nc1nsc(C(=O)NCc2c(F)cc(F)cc2F)c1Cl [II-043] | – |
| – | 1.66^[a] | O=C(NCc1c(F)cc(F)cc1F)c1snc(N=S2CCCC2)c1Cl [II-044] | – |
| – | 1.96^[a] | O=C(NCc1cc(F)c(F)c(F)c1)c1snc(N=S2CCCC2)c1Cl [II-045] | – |
| – | 1.68^[a] | CS(C)=Nc1nsc(C(=O)NCc2cc(F)c(F)c(F)c2)c1Cl [II-046] | – |
| – | 1.57^[a] | CS(C)=Nc1nsc(C(=O)NCc2ccc(F)c(F)c2F)c1Cl [II-047] | – |
| – | 1.83^[a] | O=C(NCc1ccc(F)c(F)c1F)c1snc(N=S2CCCC2)c1Cl [II-048] | – |
| – | 2.47^[a] | CS(C)(=O)=Nc1nsc(C(=O)NCC2CCCCC2)c1Cl [II-049] | – |
| – | 3.51^[a] | Cc1ccc(S(C)=Nc2nsc(C(=O)NCC3CCCCC3)c2Cl)cc1 (stereo not drawn) [II-050] | – |
| – | 2.00^[a] | CCS(CC)=Nc1nsc(C(=O)NCC2CCCCC2)c1Cl [II-052] | – |
| – | 1.53^[a] | CS(C)=Nc1nsc(C(=O)NCC2CCCCC2)c1F [II-053] | – |
| – | 3.10^[a] | Cc1ccc(S(C)=Nc2nsc(C(=O)NCC3CCCCC3)c2F)cc1 (stereo not drawn) [II-054] | – |
| – | 1.72^[a] | O=C(NCC1CCCCC1)c1snc(N=S2CCCC2)c1F [II-055] | – |
| – | 1.30^[a] | CS(C)=Nc1nsc(C(=O)NCc2ccc(F)cc2F)c1F [II-057] | – |
| – | 1.57^[a] | O=C(NCc1ccc(F)cc1F)c1snc(N=S2CCCC2)c1F [II-059] | – |
| – | 0.32^[a] | CS(C)=Nc1nsc(C(=O)NCC2CCCC2)c1F [II-061] | – |
| – | 4.37 | COc1ccc(CNc2nsc(C(=O)N3CCCc4ccc(C(F)(F)F)cc43)c2Cl)cc1 [II-062] | LogP [b]: 4.25 |
| – | 3.72^[a] | COc1ccc(CNc2nsc(C(=O)N3CCCc4cc(OC)ccc43)c2Cl)cc1 [II-063] | – |
| – | 3.68^[a] | COc1ccc(CNc2nsc(C(=O)N3CCc4ccccc4C3)c2Cl)cc1 [II-064] | – |
| – | 3.73^[a] | COc1ccc(CNc2nsc(C(=O)N3CCc4cc(F)ccc4C3)c2Cl)cc1 [II-065] | – |
| – | 4.37^[a] | COc1ccc(CNc2nsc(C(=O)N3CCCc4cc(Cl)ccc43)c2Cl)cc1 [II-066] | – |
| – | 4.24 | COc1ccc(CNc2nsc(C(=O)N3CCCc4cccc(C)c43)c2Cl)cc1 [II-067] | LogP [b]: 4.14 |
| – | 4.66 | COc1ccc(CNc2nsc(C(=O)N3CCc4c(Cl)ccc(Cl)c4C3)c2Cl)cc1 [II-068] | LogP [b]: 4.55 |
